Laboratory results published in US12358907B2, “Substituted pyrrolidine amides III” (GRÜNENTHAL GMBH, priority 2019, dated 2025).

biological target: glucocorticoid receptor (GAL4 DBD-GR) (Homo sapiens (Human), UniProt P04150); assay: GR cell-based assays (GRE agonist / GRE antagonist), CHO-Gal4/GR luciferase reporter; conditions: CHO-Gal4/GR reporter cells, agonist mode (EC50) or antagonist mode against beclometasone (IC50), 6 hour incubation
Description: Potential selective glucocorticoid receptor modulators of this intervention can be tested for modulation of the activity of the glucocorticoid receptor using cell-based assays. These assays involve a Chinese hamster ovary (CHO) cell line which contains fragments of the glucocorticoid receptor as well as fusion proteins. The glucocorticoid receptor fragments used are capable of binding the ligand (e.g. beclomethasone) to identify molecules that compete for binding with glucocorticoid receptor ligands. In more detail, the glucocorticoid receptor ligand binding domain is fused to the DNA binding domain (DBD) of the transcription factor GAL4 (GAL4 DBD-GR) and is stably integrated into a CHO cell line containing a GAL4-UAS-Luciferase reporter construct. […] After cell lysis the luminescence that is produced by luciferase after addition of the substrate is detected and EC50 or IC50 values can be calcuated. Engagement of molecules which induce gene expression via glucocortocoid receptor binding to the DNA leads to expression of the luciferase gene under the control of the fusion protein GAL4 DBD-GR and therefore to a dose-dependent increase of the luminescence signal. Binding of molecules which repress beclomethasone-induced gene expression of the luciferase gene under the control of the fusion protein GAL4 DBD-GR leads to a dose-dependent reduction of the luminescence signal.
The reporter cell line CHO-Gal4/GR consisted of a chinese hamster ovary (CHO) cell line (Leibniz Institute DSMZ—German Collection of Microorganisms and Cell Cultures GmbH: ACC-110) containing a firefly luciferase gene under the control of the GR ligand binding domain fused to the DNA binding domain (DBD) of GAL4 (GAL4 DBD-GR) stably integrated into CHO cells. This cell line was established by stable transfection of CHO cells with a GAL4-UAS-Luciferase reporter construct. In a subsequent step the ligand binding domain of the GR cloned into pIRES2-EGFP-GAL4 containing the DNA binding domain of GAL4 from pFA-AT2 was transfected. This fusion construct activated firefly luciferase expression under the control of a multimerized GAL4 upstream activation sequence (UAS). The signal of the emitted luminescence was recorded by the FLIPR^TETRA. This allowed for specific detection of ligand-induced activation of the GR and therefore for the identification of compounds with agonistic properties. The GAL4/UAS reporter was premixed with a vector that constitutively expressed Renilla luciferase, which served as an internal positive control for transfection efficiency.
The complete culture medium for the assay was: • DMEM F-12 (1:1) MIXTURE (LONZA cat. No: BE04-687F/U1) 500 mL • 5 mL of 100 mM Sodium Pyruvate (LONZA cat. No: BE12-115E) • 25 mL of 7.5% Sodium Bicarbonate (LONZA cat. No BE17-613E) • 6.5 mL of 1 M Hepes (LONZA cat. No: BE17-737E) • 5 mL of 100× Penicillin/Streptomycin (LONZA cat. No DE17-602E) • 50 mL of Fetal Bovine Serum (Euroclone cat. No ECS 0180L) • 0.25 mL of 10 mg/mL Puromycin (InvivoGen cat.: ant-pr-1) • 0.5 mL of 100 mg/mL Zeocin (InvivoGen cat.: ant-zn-1)
Cryo-preserved CHO-Gal4/GR cells were suspended in complete medium and 5000 cells/25 μl/well were seeded into the wells of 384-well polystyrene assay plates (Thermo Scientific, cat. #4332) and cultured at 37° C., 5% CO2 and 95% humidity. After 24 hours growth medium was carefully removed and replaced by 30 μl Opti-MEM (GIBCO, cat. #31985062) as assay buffer. To test the compounds an 8-point half-log compound dilution curve was generated in 100% DMSO starting from a 2 mM stock and compounds were then diluted 1:50 in Opti-MEM. 10 μl of compounds were then added to the wells containing 30 μl Opti-MEM resulting in a final assay concentration range from 10 μM to 0.003 μM in 0.5% DMSO. Compounds were tested at 8 concentrations in quadruplicate data points. […] Finally, cells were lysed with 20 μl of Triton/Luciferin solution and the signal of the emitted luminescence was recorded at the FLIPR^TETRA for 2 minutes. […]

Chain of glucocorticoid receptor (GAL4 DBD-GR) (P04150 524-758): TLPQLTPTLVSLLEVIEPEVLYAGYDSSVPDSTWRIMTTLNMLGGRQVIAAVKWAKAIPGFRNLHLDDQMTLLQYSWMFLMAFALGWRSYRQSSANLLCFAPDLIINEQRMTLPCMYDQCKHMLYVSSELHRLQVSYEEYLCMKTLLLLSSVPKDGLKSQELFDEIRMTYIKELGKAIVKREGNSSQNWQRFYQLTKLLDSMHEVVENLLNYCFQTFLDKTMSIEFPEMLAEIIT

IC50 [nM]	SMILES
< 100	O=C(N[C@@H]1[C@@H](c2ccccc2)N(c2ccc3c(cnn3-c3ccc(F)cc3)c2)C(=O)[C@@H]1CC(F)F)C1CC1 [Example 132, N-((2R,3S,4R)-4-(2,2-difluoroethyl)-1-(1-(4-fluorophenyl)-1H-indazol-5-yl)-5-oxo-2-phenylpyrrolidin-3-yl)cyclopropanecarboxamide]

same assay, conditions: read-out: IC50 or EC50

SMILES	IC50 [nM]
Cc1cccc([C@@H]2[C@@H](NC(=O)C3CC3)[C@@H](C)C(=O)N2c2ccc3c(cnn3-c3ccc(F)cc3)c2)c1 (racemic) [Example 70, N-[rac-(2R,3S,4R)-1-[1-(4-Fluorophenyl)-1H-indazol-5-yl]-4-methyl-2-m-tolyl-5-oxo-pyrrolidin-3-yl]-cyclopropanecarboxylic acid amide]	< 100
C[C@@H]1C(=O)N(c2ccc3c(cnn3-c3ccc(F)cc3)c2)[C@H](c2ccc(Cl)s2)[C@H]1NS(C)(=O)=O [Example 114, N-[(2S,3S,4S)-2-(5-Chloro-thiophen-2-yl)-1-[1-(4-fluorophenyl)-1H-indazol-5-yl]-4-methyl-5-oxo-pyrrolidin-3-yl]-methanesulfonic acid amide]	100 to 1000
Cc1cccc([C@@H]2[C@@H](NC(=O)c3ncccn3)[C@H](C)C(=O)N2c2ccc3c(cnn3-c3ccc(F)cc3)c2)c1 (racemic) [Example 69, N-[rac-(2R,3S,4S)-1-[1-(4-Fluorophenyl)-1H-indazol-5-yl]-4-methyl-2-m-tolyl-5-oxo-pyrrolidin-3-yl]-pyrimidine-2-carboxylic acid amide]	< 100
CC(F)(F)C(=O)N[C@H]1CC(=O)N(c2ccc3c(cnn3-c3ccc(F)cc3)c2)[C@]1(C)c1ccccc1 (racemic) [Example 100, 2,2-Difluoro-N-[rac-(2R,3S)-1-[1-(4-fluorophenyl)-1H-indazol-5-yl]-2-methyl-5-oxo-2-phenyl-pyrrolidin-3-yl]-propionamide]	< 100
Cc1cccc([C@@H]2[C@@H](NC(=O)C(C)(F)F)[C@@H](C)C(=O)N2c2ccc3c(cnn3-c3ccc(F)cc3)c2)c1 (racemic) [Example 77, 2,2-Difluoro-N-[rac-(2R,3S,4R)-1-[1-(4-fluorophenyl)-1H-indazol-5-yl]-4-methyl-2-m-tolyl-5-oxo-pyrrolidin-3-yl]-propionamide]	< 100
CC[C@@H]1[C@@H](NC(=O)c2ccn(C)n2)[C@H](Cc2ccccc2)C(=O)N1c1ccc2c(cnn2-c2ccc(F)cc2)c1 (racemic) [Example 104, N-[rac-(2R,3S,4S)-4-Benzyl-2-ethyl-1-[1-(4-fluorophenyl)-1H-indazol-5-yl]-5-oxo-pyrrolidin-3-yl]-1-methyl-1H-pyrazole-3-carboxylic acid amide]	1000 to 15000

Results, then the molecule that gave them:

IC50 [nM]	SMILES
100 to 1000	COc1ccc([C@@H]2[C@@H](NC(=O)C3CC3)[C@H](C)C(=O)N2c2ccc3c(cnn3-c3ccc(F)cc3)c2)cc1 (racemic) [Example 133, N-[rac-(2R,3S,4S)-1-[1-(4-Fluorophenyl)-1H-indazol-5-yl]-2-(4-methoxyphenyl)-4-methyl-5-oxo-pyrrolidin-3-yl]-cyclopropanecarboxylic acid amide]
< 100	C[C@@]1(F)C(=O)N(c2ccc3c(cnn3-c3ccc(F)cc3)c2)[C@H](c2ccccc2)[C@H]1NC(=O)C1CC1 (racemic) [Example 129, N-[rac-(2R,3R,4S)-4-Fluoro-1-[1-(4-fluorophenyl)-1H-indazol-5-yl]-4-methyl-5-oxo-2-phenyl-pyrrolidin-3-yl]-cyclopropanecarboxylic acid amide]
1000 to 15000	C[C@@H]1C(=O)N(c2ccc3c(cnn3-c3ccc(F)cc3)c2)[C@H](c2ccn(C)n2)[C@H]1NC(=O)C(C)(F)F (racemic) [Example 120, 2,2-Difluoro-N-[rac-(2S,3S,4S)-1-[1-(4-fluorophenyl)-1H-indazol-5-yl]-4-methyl-2-(1-methyl-1H-pyrazol-3-yl)-5-oxo-pyrrolidin-3-yl]-propionamide]
